Test results taken from patent US5955337A, “DNA encoding GLS1” (Merck & Co., Inc., priority 1996, dated 1999).
Read-outs that look alike come from different tables or passages of the source. *1 amine or outer side, *2 acyl side, *3 side chain or, on linkers, in order; H or OH if unused. Where a SMILES comes first, the peptide text is derived from it. Bridges are numbered along the chain shown (N, C = ends). [ ]: non-standard residue; d: D form. The star is where a group is joined. dOrn(4R-OH,5R-OH) = O=C([C@@H](C[C@@H](O)[C@@H](O)N[*:3])N[*:1])[*:2]; Tetradecanoyl(10R,12S-Me2) = CC[C@H](C)C[C@H](C)CCCCCCCCC(=O)*; hTyr(3S-OH,4S-OH) = N[C@H](C(=O)O)[C@H](O)[C@@H](O)c1ccc(O)cc1; Pro(3S-OH,4S-Me) = C[C@H]1CN[C@H](C(=O)O)[C@H]1O; Gln(3R-OH) = NC(=O)C[C@@H](O)[C@H](N)C(=O)O; Hyp = O=C(O)[C@@H]1C[C@@H](O)CN1

Experiments:
[1] = target: T1, 1,3-β-glucan synthase (Saccharomyces cerevisiae, UniProt P06780); assay: biochemical
T1 construct: Membrane extracts were prepared from mutant and wild-type cells grown to logarithmic phase; endogenous in cells; host or cells: S. cerevisiae X2180-1A (wild-type) and MS1 (gls1-1 mutant), washed 100,000×g membrane pellet
T1 sequence (P38631 whole entry): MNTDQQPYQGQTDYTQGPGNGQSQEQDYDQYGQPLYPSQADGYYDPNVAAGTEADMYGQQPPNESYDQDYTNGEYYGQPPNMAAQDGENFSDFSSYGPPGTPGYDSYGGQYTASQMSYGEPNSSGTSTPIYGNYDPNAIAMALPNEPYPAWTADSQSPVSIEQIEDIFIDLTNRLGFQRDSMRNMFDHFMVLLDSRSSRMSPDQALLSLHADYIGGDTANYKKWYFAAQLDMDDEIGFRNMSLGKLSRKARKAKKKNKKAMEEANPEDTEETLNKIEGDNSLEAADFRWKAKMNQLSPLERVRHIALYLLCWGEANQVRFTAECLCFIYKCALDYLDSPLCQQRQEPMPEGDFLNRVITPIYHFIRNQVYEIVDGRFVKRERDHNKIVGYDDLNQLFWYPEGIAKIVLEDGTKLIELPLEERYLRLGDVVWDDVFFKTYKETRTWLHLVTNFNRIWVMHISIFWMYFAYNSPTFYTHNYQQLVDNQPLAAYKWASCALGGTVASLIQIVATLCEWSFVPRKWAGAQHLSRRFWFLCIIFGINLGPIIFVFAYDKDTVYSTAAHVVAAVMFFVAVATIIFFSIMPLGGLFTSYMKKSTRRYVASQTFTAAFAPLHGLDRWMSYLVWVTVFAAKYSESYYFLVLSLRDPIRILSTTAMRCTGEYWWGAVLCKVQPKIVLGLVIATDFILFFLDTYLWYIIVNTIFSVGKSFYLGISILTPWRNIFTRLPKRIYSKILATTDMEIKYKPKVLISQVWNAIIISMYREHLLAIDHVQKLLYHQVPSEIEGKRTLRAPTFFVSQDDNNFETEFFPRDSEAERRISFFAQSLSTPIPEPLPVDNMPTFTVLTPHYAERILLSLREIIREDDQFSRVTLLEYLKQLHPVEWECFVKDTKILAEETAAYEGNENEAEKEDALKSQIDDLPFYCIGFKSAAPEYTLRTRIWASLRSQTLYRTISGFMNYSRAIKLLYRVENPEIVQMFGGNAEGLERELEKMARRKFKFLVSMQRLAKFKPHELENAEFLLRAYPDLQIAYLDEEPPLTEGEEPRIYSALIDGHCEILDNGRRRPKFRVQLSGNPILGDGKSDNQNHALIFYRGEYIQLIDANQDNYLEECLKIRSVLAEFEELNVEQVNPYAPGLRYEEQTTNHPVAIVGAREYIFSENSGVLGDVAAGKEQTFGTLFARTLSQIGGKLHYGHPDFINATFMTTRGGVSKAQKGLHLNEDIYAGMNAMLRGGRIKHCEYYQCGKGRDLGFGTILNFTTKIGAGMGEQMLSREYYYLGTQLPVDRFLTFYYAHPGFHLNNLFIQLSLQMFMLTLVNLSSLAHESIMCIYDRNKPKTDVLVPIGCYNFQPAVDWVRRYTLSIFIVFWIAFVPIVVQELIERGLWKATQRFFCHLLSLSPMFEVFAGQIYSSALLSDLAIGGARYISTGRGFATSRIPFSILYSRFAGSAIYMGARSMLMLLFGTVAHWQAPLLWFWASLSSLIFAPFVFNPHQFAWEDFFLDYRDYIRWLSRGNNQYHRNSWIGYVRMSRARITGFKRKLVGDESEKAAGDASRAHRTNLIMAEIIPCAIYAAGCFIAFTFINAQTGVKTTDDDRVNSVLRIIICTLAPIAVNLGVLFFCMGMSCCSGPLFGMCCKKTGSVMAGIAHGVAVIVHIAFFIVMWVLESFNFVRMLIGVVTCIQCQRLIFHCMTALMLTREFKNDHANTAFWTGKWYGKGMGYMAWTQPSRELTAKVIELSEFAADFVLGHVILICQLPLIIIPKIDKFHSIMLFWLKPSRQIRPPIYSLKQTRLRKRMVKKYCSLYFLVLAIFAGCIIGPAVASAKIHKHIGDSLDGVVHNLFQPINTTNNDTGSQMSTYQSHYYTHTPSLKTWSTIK
T1 sequence (P06780 2-206): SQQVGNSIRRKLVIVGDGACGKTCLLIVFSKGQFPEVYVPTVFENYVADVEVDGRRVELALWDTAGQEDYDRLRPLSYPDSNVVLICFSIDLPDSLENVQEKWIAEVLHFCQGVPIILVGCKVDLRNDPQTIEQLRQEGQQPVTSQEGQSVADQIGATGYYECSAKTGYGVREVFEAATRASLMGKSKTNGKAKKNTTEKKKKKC
Procedure: Membrane extracts were prepared from mutant and wild-type cells grown to logarithmic phase (Kang and Cabib, PNAS, 83, 5808-5812, 1986). After homogenization with glass beads, unbroken cells and debris were removed by low speed centrifugation (1,000×g for 5 min). The supernatant fluids were centrifuged at 100,000×g for 60 min, and the resulting pellets were washed with 2.5 ml (per gram of wet cells) of buffer containing 0.05 M potassium phosphate (pH 7.5), 0.5 mM DTT, and 1.0 mM PMSF. The washed pellet was resuspended in the same buffer containing 5% glycerol. This protein extract served as the source for both 1,3-β-glucan synthase and the chitin synthases utilized in the enzymatic assays.
Protein concentrations were determined using BCA protein assay reagent kit (Pierce Corp.), utilizing bovine serum album (BSA; Pierce Corp.) as a standard. The 1,3-β-glucan synthase reactions were performed as previously described (Cabib, E., and M. S. Kang. 1987. Fungal 1,3-b-glucansynthase, Methods Enzymol. 138: 637-642). Briefly, an […] reaction contained 125 mM Tris HCL (pH7.5), 0.25 mM dithiothretol, 30 mM KF, 0.3 M glycerol, 0.23% BSA, 0.125 mM PMSF, 2 mM UDP-glucose, […] guanosine 5'-(g-thio) triphosphate (GTPγS), 0.1 nmol UDP-[^3 H] glucose (Amersham; 4.5 Ci/mmol;) plus […] of membrane protein extract. The reactions were performed in the presence of 0.0, 0.1, 0.5, 5, 25 and 50 mM L, 733-560 for dose titration of the drug. Following incubation at 25° C. for 150 minutes, the [^3 H]-glucose incorporated into trichloroacetic acid-insoluble material was collected onto glass fiber filters (102×258 mm) and measured using a betaplate liquid scintillation counter (Cambridge Technologies Inc.; series 2800 harvester) at 25% efficiency. The product of such reactions was verified by solubilization by laminarinase (Sigma, #L9259) but not by α-amylase (Sigma, #A2643).
To study activation of 1,3-β-glucan synthesis by GTPγS incorporation of UDP-glucose into 1,3-β-D glucans, in absence and in presence of 3.3 uM GTPγS was measured. […]

[2] = system: Pneumocystis carinii; conditions: rat model of P. carinii pneumonia; Schmatz et al. 1990; cited from earlier work
[3] = system: X2180 (WT); assay: Zone of growth inhibition assay, wild-type strain; type: cell-based, Saccharomyces cerevisiae; conditions: μg/Disc: L,733-560 20; L-688-786 10; Aculeacin 50; Papulacandin 50; Nikkomycin Z 10; Rapamycin 12.5
From the text: (§1) Mutations of the GLS1 gene, including but not limited to gls1-1 (strain MS1), gls1-2 (strain MS41) and gls1-3 (strain MS43), or disruptions or deletions of GLS1, are useful for screening for glucan synthase inhibitors. Such a screen relies on the increase in echinocandin-resistance and in papulacandin sensitivity of such mutants compared to an GLS1 wild-type strain. Any technique capable of detecting this difference in sensitivity can be used. A zone of inhibition assay on agar plates is particularly useful.
(§2) The GLS1 and the fks1-4 mutants can be incorporated into an assay to screen and classify antifungal compounds with chitin and glucan synthase inhibitory effects, based on their differential resistance/sensitivity to the echinocandins, papulacandin and Nikkomycin Z. The data from this assay and the sizes of the zones of growth inhibition in millimeter is given in the following table: […]

[4] = system: MS1 (gls1-1); assay: Zone of growth inhibition assay, gls1-1 mutant; type: cell-based, Saccharomyces cerevisiae; conditions: μg/Disc: L,733-560 20; L-688-786 10; Aculeacin 50; Papulacandin 50; Nikkomycin Z 10; Rapamycin 12.5
From the text: as §1, §2

[5] = system: fks1-4 mutant (strain MS14); assay: Resistance/sensitivity of fks1-4 mutant relative to wild-type; type: cell-based, Saccharomyces cerevisiae; conditions: fks1-4 mutant vs wild-type
From the text: as §2

[6] = system: MS14 (fks1-4); assay: Zone of growth inhibition assay, fks1-4 mutant; type: cell-based, Saccharomyces cerevisiae; conditions: μg/Disc: L,733-560 20; L-688-786 10; Aculeacin 50; Papulacandin 50; Nikkomycin Z 10; Rapamycin 12.5
From the text: as §1, §2

[7] = system: Strain MS1 (gls1-1 mutant); assay: Effect of antifungal drugs on strain MS1 relative to wild-type parental strain; type: cell-based, Saccharomyces cerevisiae; conditions: FIG. 2, FIG. 10
Procedure: To quantitate the echinocandin sensitivity/resistance of the mutant strains, yeast cells grown to log phase were inoculated into 2 ml SC broth and incubated overnight at 28° C. A flat bottom 96-well microtiter plate was seeded with 75 μl of SC medium in columns 2 through 12. To column 1, 150 μl medium was added. Echinocandin (L-733,560) was prepared at a concentration of 30 μg/ml solution in sterile distilled water. An aliquot (75 μl) of echinocandin solution was added to column 3, and 75 μl from column 3 was transferred to column 4, followed by mixing of the contents of each well. 75 μl from column 4 was transferred into column 5, and the serial dilution was carried on to column 12 from which a 75 μl was discarded. A dilution of 6×10^5 cells/ml in URA drop out medium was prepared from the yeast strains. 75 μl cell suspension was then added to columns 2 through 12 giving 4.5×10^4 cells/well. The plates were incubated at 28° C. for 24-48 hr. Growth in the presence and absence of echinocandin was measured by absorbance at 600 nm.

Nc1nc2c(ncn2[C@@H]2O[C@H](COP(=O)(O)OP(=O)(O)OP(O)(O)=S)[C@@H](O)[C@H]2O)c(=O)[nH]1 [GTPγS, guanosine 5'-(g-thio) triphosphate]
response of MS1 mutant enzymatic activity to increasing concentrations of GTPγS ([1]; MS1 mutant membranes, FIG. 5): responded rather poorly | fold induction at 3.3 µM ([1]; read-out: stimulation of glucan synthesis by GTPγS, MS1 mutant enzyme): 6 | fold induction at 3.3 µM ([1]; read-out: stimulation of glucan synthesis by GTPγS, first value): ~19

CC[C@H](C)C[C@H](C)CCCCCCCCC(=O)N[C@@H]1C[C@@H](O)[C@@H](O)NC(=O)[C@@H]2[C@@H](O)[C@@H](C)CN2C(=O)[C@H]([C@H](O)CC(N)=O)NC(=O)[C@H]([C@H](O)[C@@H](O)c2ccc(O)cc2)NC(=O)[C@@H]2C[C@@H](O)CN2C(=O)[C@H]([C@@H](C)O)NC1=O [L-671,329] ({Tetradecanoyl(10R,12S-Me2)}-[dOrn(4R-OH,5R-OH)]T[Hyp][hTyr(3S-OH,4S-OH)][Gln(3R-OH)][Pro(3S-OH,4S-Me)]; lactam 1-C)
reduction of the number of cysts in the lungs of infected rats [2]: effective in reducing the number of cysts

C[C@@H]([C@H](N)C(=O)N[C@H](C(=O)O)[C@H]1O[C@@H](n2ccc(=O)[nH]c2=O)[C@H](O)[C@@H]1O)[C@H](O)c1ccc(O)cn1 [Nikkomycin Z]
size of the zone of growth inhibition, X2180 (WT) [3]: 0.0 millimeter | size of the zone of growth inhibition, MS1 (gls1-1) [4]: 0.0 millimeter | fold more sensitive than wild-type, fks1-4 mutant (MS14) [5]: 1000 fold | size of the zone of growth inhibition, MS14 (fks1-4) [6]: 30.0 millimeter

CCC(O)/C=C/C=C/C=C/C(=O)OC[C@H]1O[C@@H](O[C@H]2[C@H](OC(=O)/C=C/C=C/CC(O)/C(C)=C/C=C/CCC(C)CC)[C@@H](O)[C@@]3(OCc4cc(O)cc(O)c43)O[C@@H]2CO)[C@H](O)[C@@H](O)[C@H]1O (stereo partly shown) [Papulacandin]
size of the zone of growth inhibition, X2180 (WT) [3]: 10 millimeter | size of the zone of growth inhibition, MS1 (gls1-1) [4]: 20 millimeter | sensitivity/resistance of MS1 cells compared with wild-type parental strain [7]: more sensitive | size of the zone of growth inhibition, MS14 (fks1-4) [6]: 10 millimeter

CO[C@H]1C[C@@H]2CC[C@@H](C)[C@@](O)(O2)C(=O)C(=O)N2CCCC[C@H]2C(=O)O[C@H]([C@H](C)C[C@@H]2CC[C@@H](O)[C@H](OC)C2)CC(=O)[C@H](C)/C=C(\C)[C@@H](O)[C@@H](OC)C(=O)[C@H](C)C[C@H](C)/C=C/C=C/C=C/1C [Rapamycm, rapamycin]
size of the zone of growth inhibition, X2180 (WT) [3]: 0.0 millimeter | size of the zone of growth inhibition, MS1 (gls1-1) [4]: 13 millimeter | sensitivity/resistance of MS1 cells compared with wild-type parental strain [7]: more sensitive | size of the zone of growth inhibition, MS14 (fks1-4) [6]: 0.0 millimeter

Aculeacin
size of the zone of growth inhibition, X2180 (WT) [3]: 15 millimeter | size of the zone of growth inhibition, MS1 (gls1-1) [4]: 9 millimeter | size of the zone of growth inhibition, MS14 (fks1-4) [6]: 0.0 millimeter
